Assay results reported in patent US6124275A, “Methods and compositions for controlling a pest population” (priority 1999, dated 2000).
Where two headings read alike, the source gives them in different places.

Assays:
[1] = tested on: melon aphid; assay: Pesticidal efficacy, melon aphid (Example 8); settings: for mortality at 5 % / mortality at 1 %: Aphis gossypii, topical, read-out: highest observed mortality
Experimental: (§1) Plants (chrysanthemum and minirose) were infested with melon aphid and two-spotted spider mites and sprayed to run-off using a standard 250 ml hand-held sprayer. Mortality was recorded at 24 HPA and 48 HPA.

[2] = tested on: American cockroach; assay: whole plant or invertebrate; settings: Periplaneta americana, topical, read-out: highest observed mortality
Experimental: (§2) The objective of the experiment was to evaluate the general effectiveness of ES in an emulsion formulation against the American cockroach.
(§3) An emulsion of ES (Sigma) was prepared at 5.0 wt % ES and 1.0 wt % T20. A 1 wt % T20 solution was also prepared as a formula blank treatment. A negative control of no treatment was included in the bioassay. The three treatments were applied to three replications of 4 cockroaches each.
(§4) The treatments were applied as sprays using a standard hand held 250 ml sprayer. For each direct treatment, 4 cockroaches were each sprayed to run-off on filter paper fitted to the bottom of a 1 liter stainless steel jar. Cockroaches were then transferred to 250 ml flasks for observation. For residuality/reintroduction bioassays, the treated filter papers were removed from direct treatment spray jars and allowed to air dry. After drying, the filter papers were replaced in jars and cockroaches introduced for observation.

[3] = tested on: American cockroach; settings: for Time (to 100% lethality): 5.0 wt % ES, 1.0 wt % T20
Experimental: as §2, §3, §4

[4] = tested on: two-spotted spider mite; assay: Pesticidal efficacy, two-spotted spider mite (Example 8); settings: for mortality at 5 %: Tetranychus urticae, topical, read-out: highest observed mortality
Experimental: as §1

[5] = tested on: cladosporium; assay: Evaluation against the fungus cladosporium; settings: 1 wt % formulation
[6] = tested on: two-spotted spider mites; type: in vivo, Tetronmychua urticae; settings: for efficacy against two-spotted spider mites: 1.0% BS, 0.2% T20, words
[7] = tested on: housefly; assay: whole plant or invertebrate; settings: Musca domestica, topical, 24 h, read-out: highest observed mortality
Experimental: (§5) All experiments were conducted with a hand held sprayer at an application rate equivalent to 100 gallons/acre. […] Specific treatment conditions were as follows: pharaoh ants were contained in paper cups with a cloth mesh enclosure at the top and sprayed from a distance of 12 inches; honey bees were contained in wire mesh cages with Petri dishes as end enclosures and sprayed from a distance of 24 inches; German cockroaches and houseflies were contained in Peet-Grady chambers and sprayed from a distance of 24 inches; and cat fleas were delivered onto carpet disks and sprayed from an un-reported distance.

[8] = tested on: honey bee; assay: Pesticidal efficacy, honey bee (Example 8); type: in vivo; settings: Apis mellifera, topical, T20 carrier, 24 hours post application, read-out: highest observed mortality
[9] = tested on: pharaoh ant; settings: for highest observed mortality: in vivo, topical or ocular, 24 h
Experimental: as §5
(§6) In evaluating efficacy against structural pests, BS was tested on pharaoh ant and cat flea at two concentrations, 1 wt % and 5 wt %.

[10] = tested on: chrysanthemums; design: species or system chrysanthemum; settings: in vivo
Source text: Both formulations were applied via direct contact spray. […] The phytotoxicity of plants were also observed.

[11] = tested on: western flower thrips; assay: whole plant or invertebrate; settings: Frankliniella occidentalis, topical, 72 h, read-out: highest observed mortality
[12] = tested on: Argentine ant; assay: Pesticidal efficacy, Argentine ant (Example 8)
[13] = tested on: cat flea; assay: Pesticidal efficacy, cat flea (Example 8); settings: for mortality at 5 wt %: Ctenocephalides felis, topical, 24 h, read-out: highest observed mortality
Experimental: as §5, §6

[14] = tested on: plants; assay: Phytotoxicity to plants (general statement); type: in vivo; settings: words
[15] = tested on: melon aphids; assay: whole plant or invertebrate; type: in vivo, Aphis gossypii; settings: for efficacy against melon aphids: 1.0% BS, 0.2% T20, words
[16] = tested on: German cockroach; assay: whole plant or invertebrate; settings: Blattella germanica, topical, 24 h, read-out: highest observed mortality
Experimental: as §5

[17] = tested on: arthropods; assay: Insecticidal activity on arthropods (general statement); type: in vivo; settings: words
[18] = until 25 wt % concentration; cited from earlier work
[19] = tested on: leafminer; settings: for highest observed mortality: leafminer, in vivo, topical or ocular, 480 h
[20] = tested on: Argentine ants; assay: Repellency to Argentine ants; type: in vivo, Argentine ant; settings: at one week
[21] = tested on: silverleaf whiteflies; settings: for highest observed mortality: silverleaf whitefly, in vivo, topical or ocular, 120 h
[22] = tested on: melon aphids; assay: whole plant or invertebrate; settings: Aphis gossypii, topical, 24 h, read-out: Total Mortality
[23] = tested on: human head lice eggs; settings: 22.5 g as a thin layer on the eggs; cited from earlier work
[24] = tested on: western flower thrips; settings: words
[25] = tested on: two-spotted spider mites; settings: words
[26] = tested on: E. hirsti (chiggar mite) larvae; settings: cloth treated with ethanol solution of 5% benzyl benzoate, cited from earlier work
[27] = tested on: rats; settings: Merck Index; cited from earlier work
[28] = tested on: Western flower thrips (larvae and pupae); settings: 1.0% BB, 0.1% T80, words
[29] = tested on: melon aphids; assay: whole plant or invertebrate; settings: Aphis gossypii, topical, read-out: Total Mortality
[30] = tested on: two-spotted spider mites; settings: 1.0% BB, 0.1% T80; words
[31] = tested on: Western flower thrips (larvae and pupae); assay: whole plant or invertebrate; settings: Frankliniella occidentalis, topical, read-out: Total Mortality
[32] = tested on: melon aphids; settings: words
[33] = tested on: melon aphids; settings: 1.5% BB, 0.3% T80; words
[34] = tested on: roses; settings: in vivo
Source text: Both formulations were applied via direct contact spray.
Both were applied via direct contact spray.

[35] = tested on: melon aphids; settings: 1.5% BB, 0.5% T80; words
[36] = tested on: melon aphids; assay: whole plant or invertebrate; settings: Aphis gossypii, topical, 24 h, read-out: Total Mortality; remark: listed apart in the source

CCOC(=O)c1ccccc1O [ES, ethyl salicylate]
mortality at 5 % [1]: 90%
mortality at 5 wt % [2]: 100%
lethality on American cockroach ([3]; 5 wt %, direct spray, words): lethal
Time (to 100% lethality) ([3]; Direct spray): 3 to 7 min
Time (to 100% lethality) ([3]; Residuality/Reintroduction): 60 to 120 min
Lethality ([3]; american cockroach, in vivo): 100%
time, lethal to all test cockroaches ([3]; both direct spray and residual/reintroduction): ≤ 2 h
mortality at 5 % [4]: 90%

O=C(Oc1ccccc1)c1ccccc1O [phenyl salicylate]
mortality at 5 % [1]: 90%
mortality at 5 % [4]: 90%
effect against the fungus cladosporium [5]: effective at both inhibiting fungal growth and at killing the fungus

O=C(OCc1ccccc1)c1ccccc1O [BS, benzyl salicylate]
efficacy against two-spotted spider mites [6]: clearly indicate the efficacy of BS against melon aphids and two-spotted spider mites
efficacy against two-spotted spider mites ([6]; listed as benzyl salicylate): effective in controlling aphids and spider mites
Total Mortality ([6]; in vivo, topical or ocular): 86.9%
mortality at 0.1 % [7]: 47%
mortality at 1 % ([8]; 1.0 wt % AC): 78%
effective on pharaoh ant ([9]; 5 wt %, words): effective on both pests
highest observed mortality [9]: 89%
mortality at 1 % [1]: 98%
dose response, melon aphid ([1]; words): activity increased with AC concentration only on melon aphid
phytotoxicity, chrysanthemums [10]: severe damage from leaf tips moving inwards, and some leaf damage beginning from bottom leaves and moving upwards, with the newest leaves remaining unaffected
mortality at 0.5 % [11]: 36%
highest observed mortality ([12]; 1.0 wt % AC, T20 carrier): 99%
LC100 at higher concentrations ([12]; 2, 3 and 5 wt %, words): held at 2 wt %, 3 wt % and 5 wt %
LC100 ([12]; AC concentration): 1 wt %
activity on Argentine ants ([12]; words): excellent activity
dose response, Argentine ants ([12]; words): good dose response
effective on cat flea ([13]; 5 wt %, words): effective on both pests
mortality at 5 wt % [13]: 100%
phytotoxicity [14]: can be phytotoxic to some plants
efficacy against melon aphids [15]: clearly indicate the efficacy of BS against melon aphids
efficacy against melon aphids ([15]; listed as benzyl salicylate): effective in controlling aphids
mortality at 1 % ([15]; Aphis gossypii, topical, read-out: Total Mortality): 89.3%
mortality at 1.1 % [16]: 0%
insecticidal activity [17]: clearly shown to be insecticidal
contact dermatitis [18]: does not cause contact dermatitis (until 25 wt % concentration)
highest observed mortality [19]: 25%
repellant to Argentine ants [20]: repellant to Argentine ants at one week
highest observed mortality [21]: 70%

O=C(OCc1ccccc1)c1ccccc1 [BB, benzyl benzoate]
mortality at 0.1 % [7]: 35%
mortality at 1.5 % [22]: 89.4%
killing human head lice eggs [23]: killing human head lice eggs
dose response, western flower thrips [24]: all except for western flower thrips
mortality at 0.3 % ([8]; 0.3 wt % AC): 68%
efficacy against two spotted spider mites ([25]; 2.5% BB, 0.1% T80): clearly indicate efficacy of the BB formulation against two spotted spider mites
controlling spider mites ([25]; summary of Examples 1-7): effective for controlling aphids, thrips, and spider mites
highest observed mortality [9]: 21%
knockdown of test larvae ([26]; <3 minutes): 100%
time to 100% knockdown [26]: < 3 min
LD50 [27]: 1,830 mg/Kg
mortality at 1 % [1]: 74%
dose response, melon aphid ([1]; words): Good dose response
phytotoxicity of chrysanthemums [10]: None of the treatments resulted in phytotoxicity of chrysanthemums
phytotoxicity to chrysanthemums [10]: no phytotoxicity to chrysanthemums
phytotoxicity, chrysanthemum [10]: no phytotoxicity for 5 days, only the lowest leaves showed two necrotic spots but no serious damage
phytotoxicity, chrysanthemums [10]: no phytotoxicity
mortality at 0.25 % [11]: 14%
efficacy against Western flower thrips [28]: clear efficacy against Western flower thrips
efficacy against Western flower thrips ([28]; listed as benzyl benzoate): effective for controlling aphids, thrips
mortality at 5 wt % [13]: 93%
mortality at 1.5 % [29]: 85%
mortality at 1 % [16]: 0%
efficacy against two-spotted spider mites [30]: indicate efficacy of the benzyl benzoate formulation against two-spotted spider mites
mortality at 1 % [31]: 85.7%
efficacy against melon aphids ([32]; 2.5% BB, 0.1% T80): clear efficacy against melon aphids
controlling aphids ([32]; summary of Examples 1-7): effective for controlling aphids
efficacy against melon aphids [33]: clear efficacy against melon aphids
phytotoxicity observed on the roses [34]: no phytotoxicity observed
effect on melon aphids [35]: killed the aphids in their tracks; the aphids did not desiccate, instead appeared preserved
highest observed mortality [19]: 24%
dose response, leafminer ([19]; words): Good dose response
mortality at 2.5 % [36]: 90.3%
highest observed mortality [21]: 39%
dose response, silverleaf whiteflies ([21]; words): Good dose response

CC(=O)OCc1ccccc1 [benzyl acetate]
mortality at 5 % [1]: ≥ 90%
activity on aphid ([1]; words): high activity
phytotoxicity [14]: non-phytotoxic
mortality at 5 % [4]: ≥ 90%
activity on 2-spotted spider mites ([4]; words): high activity

CCCCOC(=O)c1ccccc1C(=O)OCc1ccccc1 [benzyl butyl phthalate]
mortality at 5 % [1]: 70%
mortality at 5 % [4]: 50%

COC(=O)c1ccccc1O [methyl salicylate]
mortality at 5 % [1]: 90%
mortality at 5 % [4]: 90%
